Measured values taken from patent US11679114B2, “Progestogen-only oral contraception” (Navad Life Sciences Pte, priority 2021, dated 2023).

Legend:
[1] = system: healthy, cyclic women; test: Ovarian activity according the Hoogland-Skouby score during two 28-day treatment periods; type: in vivo, human
Description: The tablets prepared in Example 1 were tested in a single-center, open-label, adaptive design study to evaluate the influence on hormonal and ovarian function and vaginal bleeding pattern of different higher dosages of LNG administered once daily for 28 days over two consecutive treatment cycles in healthy, cyclic women.
The first tested dosage was 0.095 mg per day. The choice of subsequent dosages depended on the occurrence of ovulations in the previous treatment groups. The study was stopped when the lowest dosage completely inhibiting ovulation was identified, and one higher and one lower dosage were investigated.
Subjects started study medication intake on the first day of menstrual bleeding after the pre-treatment cycle. One tablet was taken orally, around the same time every morning, during 56 consecutive days. Study visits were planned every three (±1) days from treatment day 3 (±1) until 27 (±1) and from day 31 (±1) until day 55 (±1). At each visit the diameter of the largest follicle-like structure (FLS) and serum follicle-stimulating hormone (FSH), luteinizing hormone (LH), estradiol (E2) and P concentrations were measured.
The primary outcome parameter was ovarian activity according the Hoogland-Skouby score (Table 1), determined for each 28-day treatment period (Hoogland H J, Skouby S O. “Ultrasound evaluation of ovarian activity under oral contraceptives,” Contraception 1993; 47: pp. 583-90).
If ovulation was observed during treatment, the subsequent luteal phase was evaluated using the Landgren criterion, i.e. the luteal phase was considered adequate when P concentrations were >16 nmol/L during at least 5 days (Landgren et al., “Hormonal effects of the 300 μg norethisterone (NET) minipill. 1. Daily steroid levels in 43 subjects during a pretreatment cycle and during the second month of NET administration,” Contraception 1980; 21: pp. 87-113). TVUS measurements of the diameter of the largest FLS (mean of two directions) were performed using a Voluson E8 Expert device (GE Medical Systems). Serum FSH, LH, E2, P and SHBG concentrations were determined by validated chemiluminescent microparticle immunoassays (Abbott, Longford, Ireland). All pharmacodynamic parameters were evaluated descriptively.

[2] = Multiple-dose pharmacokinetics, plasma LNG concentrations on treatment day 55 (±1); type: in vivo, human; details: entire treatment group
Description: Serum SHBG concentrations were determined after ovulation in the pre-treatment cycle, on treatment day 55 (±1) and at the end-of-study examination. Multiple-dose PK parameters were investigated in approximately 15 subjects per dose group, 5 of them having a BMI≥30 kg/m^2. Blood samples for LNG determination were taken on treatment day 55 (±1) pre-dose and 0.5, 1, 2, 3, 4, 6 and 24 hours after dosing.
Plasma LNG concentrations were determined by a validated liquid chromatography hyphenated with tandem mass spectrometry method (ACC, Leidersbach, Germany). PK parameters were derived by means of non-compartmental analysis. Analysis of Variance (ANOVA) was used as basis for the calculation of 90% confidence intervals; point estimates and confidence intervals for area under the curve (AUC) and maximum concentration (Cmax) values and comparison of treatments which were calculated by parametric analysis. Descriptive statistics for each treatment group and for subgroups with BMI<30 and ≥30 kg/m^2 were calculated.

[3] = LNG 0.095 mg per day, treatment period 1
[4] = LNG 0.095 mg per day, treatment period 2
[5] = LNG 0.115 mg per day, treatment period 1
[6] = LNG 0.115 mg per day, treatment period 2
[7] = LNG 0.135 mg per day, treatment period 1
[8] = LNG 0.135 mg per day, treatment period 2
[9] = 0.095 mg per day oral over 55 ± 1 consecutive days
[10] = 0.115 mg per day oral over 55 ± 1 consecutive days
[11] = 0.135 mg per day oral over 55 ± 1 consecutive days

AUC0-24, ss, Max [2, 9]: 0.0232 µg·h/mL
AUC0-24, ss, Min [2, 9]: 0.00729 µg·h/mL
Cmax, ss, Max [2, 9]: 3.12 ng/mL
Cmax, ss, Min [2, 9]: 0.903 ng/mL
AUC0-24, ss, Max [2, 10]: 0.0261 µg·h/mL
AUC0-24, ss, Min [2, 10]: 0.00558 µg·h/mL
Cmax, ss, Max [2, 10]: 2.83 ng/mL
Cmax, ss, Min [2, 10]: 0.73 ng/mL
AUC0-24, ss, Max [2, 11]: 0.03 µg·h/mL
AUC0-24, ss, Min [2, 11]: 0.0102 µg·h/mL
SMILES: C#C[C@]1(O)CC[C@H]2[C@@H]3CCC4=CC(=O)CC[C@@H]4[C@H]3CC[C@@]21CC (racemic) [LNG, levonorgestrel]
Subjects with Hoogland-Skouby score 1 (No activity), % [1, 3]: 3.7%
Subjects with Hoogland-Skouby score 2 (Potential activity), % [1, 3]: 29.6%
Subjects with Hoogland-Skouby score 3 (Non-active FLS), % [1, 3]: 3.7%
Subjects with Hoogland-Skouby score 4 (Active FLS), % [1, 3]: 55.6%
Subjects with Hoogland-Skouby score 5 (LUF), % [1, 3]: 0%
Subjects with Hoogland-Skouby score 6 ('Ovulation'), % [1, 3]: 7.4%
Subjects with Hoogland-Skouby score 1 (No activity), % [1, 4]: 0%
Subjects with Hoogland-Skouby score 2 (Potential activity), % [1, 4]: 24.0%
Subjects with Hoogland-Skouby score 3 (Non-active FLS), % [1, 4]: 0%
Subjects with Hoogland-Skouby score 4 (Active FLS), % [1, 4]: 76.0%
Subjects with Hoogland-Skouby score 5 (LUF), % [1, 4]: 0%
Subjects with Hoogland-Skouby score 6 ('Ovulation'), % [1, 4]: 0%
Subjects with Hoogland-Skouby score 1 (No activity), % [1, 5]: 3.7%
Subjects with Hoogland-Skouby score 2 (Potential activity), % [1, 5]: 22.2%
Subjects with Hoogland-Skouby score 3 (Non-active FLS), % [1, 5]: 3.7%
Subjects with Hoogland-Skouby score 4 (Active FLS), % [1, 5]: 70.4%
Subjects with Hoogland-Skouby score 5 (LUF), % [1, 5]: 0%
Subjects with Hoogland-Skouby score 6 ('Ovulation'), % [1, 5]: 0%
Subjects with Hoogland-Skouby score 1 (No activity), % [1, 6]: 3.85%
Subjects with Hoogland-Skouby score 2 (Potential activity), % [1, 6]: 23.1%
Subjects with Hoogland-Skouby score 3 (Non-active FLS), % [1, 6]: 7.7%
Subjects with Hoogland-Skouby score 4 (Active FLS), % [1, 6]: 65.4%
Subjects with Hoogland-Skouby score 5 (LUF), % [1, 6]: 0%
Subjects with Hoogland-Skouby score 6 ('Ovulation'), % [1, 6]: 0%
Subjects with Hoogland-Skouby score 1 (No activity), % [1, 7]: 4.0%
Subjects with Hoogland-Skouby score 2 (Potential activity), % [1, 7]: 32.0%
Subjects with Hoogland-Skouby score 3 (Non-active FLS), % [1, 7]: 0%
Subjects with Hoogland-Skouby score 4 (Active FLS), % [1, 7]: 64.0%
Subjects with Hoogland-Skouby score 5 (LUF), % [1, 7]: 0%
Subjects with Hoogland-Skouby score 6 ('Ovulation'), % [1, 7]: 0%
Subjects with Hoogland-Skouby score 1 (No activity), % [1, 8]: 4.0%
Subjects with Hoogland-Skouby score 2 (Potential activity), % [1, 8]: 24.0%
Subjects with Hoogland-Skouby score 3 (Non-active FLS), % [1, 8]: 4.0%
Subjects with Hoogland-Skouby score 4 (Active FLS), % [1, 8]: 68.0%
Subjects with Hoogland-Skouby score 5 (LUF), % [1, 8]: 0%
Subjects with Hoogland-Skouby score 6 ('Ovulation'), % [1, 8]: 0%
Lowest dosage at which no ovulation occurred (lowest effective dosage) ([1]; once daily oral, two 28-day treatment periods, 0.095, 0.115 and 0.135 mg tested): 0.115 mg per day
